Measurements as given in ChEMBL document CHEMBL4507316 (2021).

Tests used:
[1] = molecular target: Serine/threonine-protein kinase WNK2 (Homo sapiens) (UniProt Q9Y3S1); assay: WNK2 ProQinase selectivity panel; conditions: Compound concentration 1.0 uM
[2] = molecular target: Mitogen-activated protein kinase kinase kinase 10 (Homo sapiens) (UniProt Q02779); assay: MAP3K10 ProQinase selectivity panel; conditions: Compound concentration 1.0 uM
[3] = molecular target: Tyrosine-protein kinase JAK2 (Homo sapiens) (UniProt O60674); assay: JAK2 ProQinase selectivity panel; conditions: Compound concentration 1.0 uM
[4] = molecular target: Protein-tyrosine kinase 2-beta (Homo sapiens) (UniProt Q14289); assay: PYK2 ProQinase selectivity panel; conditions: Compound concentration 1.0 uM
[5] = tested on: Epidermal growth factor receptor (Homo sapiens), P00533 [L858R,T790M]; assay: EGF-R T790M/L858R ProQinase selectivity panel; conditions: Compound concentration 1.0 uM
[6] = molecular target: Mitogen-activated protein kinase kinase kinase kinase 2 (Homo sapiens) (UniProt Q12851); assay: MAP4K2 ProQinase selectivity panel; conditions: Compound concentration 1.0 uM
[7] = tested on: Platelet-derived growth factor receptor alpha (Homo sapiens), P16234 [V561D]; assay: PDGFR-alpha V561D ProQinase selectivity panel; conditions: Compound concentration 1.0 uM
[8] = molecular target: Serine/threonine-protein kinase pim-1 (Homo sapiens) (UniProt P11309); assay: PIM1 ProQinase selectivity panel; conditions: Compound concentration 1.0 uM
[9] = molecular target: DNA-dependent protein kinase catalytic subunit (Homo sapiens) (UniProt P78527); assay: DNA-PK ProQinase selectivity panel; conditions: Compound concentration 1.0 uM
[10] = molecular target: Alpha-1A adrenergic receptor (Homo sapiens) (UniProt P35348); conditions: Compound concentration 10.0 uM
[11] = molecular target: cGMP-dependent protein kinase 1 (Homo sapiens) (UniProt Q13976); assay: PRKG1 ProQinase selectivity panel; conditions: Compound concentration 1.0 uM
[12] = molecular target: 5-hydroxytryptamine receptor 1A (Homo sapiens) (UniProt P08908); conditions: Compound concentration 10.0 uM
[13] = molecular target: Serine/threonine-protein kinase Nek1 (Homo sapiens) (UniProt Q96PY6); assay: NEK1 ProQinase selectivity panel; conditions: Compound concentration 1.0 uM
[14] = molecular target: Cyclin-dependent kinase 16 (Homo sapiens) (UniProt Q00536); assay: PCTAIRE1 ProQinase selectivity panel; conditions: Compound concentration 1.0 uM
[15] = molecular target: Casein kinase I isoform gamma-3 (Homo sapiens) (UniProt Q9Y6M4); assay: CK1-gamma3 ProQinase selectivity panel; conditions: Compound concentration 1.0 uM
[16] = molecular target: Histamine H3 receptor (Homo sapiens) (UniProt Q9Y5N1); conditions: Compound concentration 10.0 uM
[17] = molecular target: SRSF protein kinase 1 (Homo sapiens) (UniProt Q96SB4); assay: SRPK1 ProQinase selectivity panel; conditions: Compound concentration 1.0 uM
[18] = molecular target: Mitogen-activated protein kinase 3 (Homo sapiens) (UniProt P27361); assay: ERK1 ProQinase selectivity panel; conditions: Compound concentration 1.0 uM
[19] = molecular target: Ephrin type-A receptor 4 (Homo sapiens) (UniProt P54764); assay: EPHA4 ProQinase selectivity panel; conditions: Compound concentration 1.0 uM
[20] = molecular target: Inhibitor of nuclear factor kappa-B kinase subunit alpha (Homo sapiens) (UniProt O15111); assay: IKK-alpha ProQinase selectivity panel; conditions: Compound concentration 1.0 uM
[21] = molecular target: Tyrosine-protein kinase JAK1 (Homo sapiens) (UniProt P23458); assay: JAK1 ProQinase selectivity panel; conditions: Compound concentration 1.0 uM
[22] = molecular target: MAP/microtubule affinity-regulating kinase 4 (Homo sapiens) (UniProt Q96L34); assay: MARK4 ProQinase selectivity panel; conditions: Compound concentration 1.0 uM
[23] = molecular target: D(4) dopamine receptor (Homo sapiens) (UniProt P21917); conditions: Compound concentration 10.0 uM
[24] = molecular target: Epidermal growth factor receptor (Homo sapiens) (UniProt P00533); assay: EGF-R wt ProQinase selectivity panel; conditions: Compound concentration 1.0 uM
[25] = tested on: Tyrosine-protein kinase ABL1 (Homo sapiens), P00519 [H396P]; assay: ABL1 H396P ProQinase selectivity panel; conditions: Compound concentration 1.0 uM
[26] = molecular target: Mitogen-activated protein kinase kinase kinase 9 (Homo sapiens) (UniProt P80192); assay: MAP3K9 ProQinase selectivity panel; conditions: Compound concentration 1.0 uM
[27] = molecular target: Serine/threonine-protein kinase WNK3 (Homo sapiens) (UniProt Q9BYP7); assay: WNK3 ProQinase selectivity panel; conditions: Compound concentration 1.0 uM
[28] = tested on: Tyrosine-protein kinase ABL1 (Homo sapiens), P00519 [M351T]; assay: ABL1 M351T ProQinase selectivity panel; conditions: Compound concentration 1.0 uM
[29] = molecular target: CDK6/cyclin D1 (Homo sapiens) (UniProt P24385+Q00534); assay: CDK6/CycD1 ProQinase selectivity panel; assay type: protein-complex assay; conditions: Compound concentration 1.0 uM
[30] = molecular target: Glycogen synthase kinase-3 beta (Homo sapiens) (UniProt P49841); assay: GSK3-beta ProQinase selectivity panel; conditions: Compound concentration 1.0 uM
[31] = molecular target: Cytoplasmic tyrosine-protein kinase BMX (Homo sapiens) (UniProt P51813); assay: BMX ProQinase selectivity panel; conditions: Compound concentration 1.0 uM
[32] = molecular target: Proto-oncogene tyrosine-protein kinase ROS (Homo sapiens) (UniProt P08922); assay: ROS ProQinase selectivity panel; conditions: Compound concentration 1.0 uM
[33] = molecular target: High affinity nerve growth factor receptor (Homo sapiens) (UniProt P04629); assay: TRK-A ProQinase selectivity panel; conditions: Compound concentration 1.0 uM
[34] = molecular target: Serine/threonine-protein kinase Nek2 (Homo sapiens) (UniProt P51955); assay: NEK2 ProQinase selectivity panel; conditions: Compound concentration 1.0 uM
[35] = molecular target: Homeodomain-interacting protein kinase 4 (Homo sapiens) (UniProt Q8NE63); assay: HIPK4 ProQinase selectivity panel; conditions: Compound concentration 1.0 uM
[36] = molecular target: Ephrin type-A receptor 8 (Homo sapiens) (UniProt P29322); assay: EPHA8 ProQinase selectivity panel; conditions: Compound concentration 1.0 uM
[37] = molecular target: Serine/threonine-protein kinase Sgk1 (Homo sapiens) (UniProt O00141); assay: SGK1 ProQinase selectivity panel; conditions: Compound concentration 1.0 uM
[38] = molecular target: Ribosomal protein S6 kinase beta-1 (Homo sapiens) (UniProt P23443); assay: S6K ProQinase selectivity panel; conditions: Compound concentration 1.0 uM
[39] = molecular target: Dual specificity mitogen-activated protein kinase kinase 2 (Homo sapiens) (UniProt P36507); assay: MEK2 ProQinase selectivity panel; conditions: Compound concentration 1.0 uM
[40] = molecular target: Ephrin type-B receptor 2 (Homo sapiens) (UniProt P29323); assay: EPHB2 ProQinase selectivity panel; conditions: Compound concentration 1.0 uM
[41] = molecular target: Tyrosine-protein kinase Yes (Homo sapiens) (UniProt P07947); assay: YES ProQinase selectivity panel; conditions: Compound concentration 1.0 uM
[42] = molecular target: Alpha-2A adrenergic receptor (Homo sapiens) (UniProt P08913); conditions: Compound concentration 10.0 uM
[43] = molecular target: G protein-coupled receptor kinase 5 (Homo sapiens) (UniProt P34947); assay: GRK5 ProQinase selectivity panel; conditions: Compound concentration 1.0 uM
[44] = molecular target: Mitogen-activated protein kinase kinase kinase 7 (Homo sapiens) (UniProt O43318); assay: MAP3K7/MAP3K7IP1 ProQinase selectivity panel; conditions: Compound concentration 1.0 uM
[45] = molecular target: Serine/threonine-protein kinase DCLK2 (Homo sapiens) (UniProt Q8N568); assay: DCAMKL2 ProQinase selectivity panel; conditions: Compound concentration 1.0 uM
[46] = molecular target: ALK tyrosine kinase receptor (Homo sapiens) (UniProt Q9UM73); assay: ALK ProQinase selectivity panel; conditions: Compound concentration 1.0 uM
[47] = tested on: Tyrosine-protein kinase ABL1 (Homo sapiens), P00519 [Q252H]; assay: ABL1 Q252H ProQinase selectivity panel; conditions: Compound concentration 1.0 uM
[48] = molecular target: Protein kinase C zeta type (Homo sapiens) (UniProt Q05513); assay: PKC-zeta ProQinase selectivity panel; conditions: Compound concentration 1.0 uM
[49] = molecular target: Serine/threonine-protein kinase SIK2 (Homo sapiens) (UniProt Q9H0K1); assay: SNF1LK2 ProQinase selectivity panel; conditions: Compound concentration 1.0 uM

Sequence of Alpha-1A adrenergic receptor (Homo sapiens) (P35348 whole entry): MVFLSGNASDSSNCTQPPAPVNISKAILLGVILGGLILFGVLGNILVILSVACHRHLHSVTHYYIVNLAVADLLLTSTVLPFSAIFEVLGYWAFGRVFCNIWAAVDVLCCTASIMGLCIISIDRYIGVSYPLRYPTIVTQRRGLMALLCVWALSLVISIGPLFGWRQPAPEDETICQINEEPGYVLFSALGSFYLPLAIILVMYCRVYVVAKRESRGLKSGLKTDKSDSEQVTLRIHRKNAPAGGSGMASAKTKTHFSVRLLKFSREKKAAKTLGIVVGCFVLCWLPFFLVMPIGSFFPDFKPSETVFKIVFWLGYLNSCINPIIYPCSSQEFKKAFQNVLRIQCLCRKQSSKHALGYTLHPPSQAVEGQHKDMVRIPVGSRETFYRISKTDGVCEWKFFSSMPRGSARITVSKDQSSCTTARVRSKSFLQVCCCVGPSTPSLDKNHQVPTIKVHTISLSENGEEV
Sequence of Dual specificity mitogen-activated protein kinase kinase 2 (Homo sapiens) (P36507 whole entry): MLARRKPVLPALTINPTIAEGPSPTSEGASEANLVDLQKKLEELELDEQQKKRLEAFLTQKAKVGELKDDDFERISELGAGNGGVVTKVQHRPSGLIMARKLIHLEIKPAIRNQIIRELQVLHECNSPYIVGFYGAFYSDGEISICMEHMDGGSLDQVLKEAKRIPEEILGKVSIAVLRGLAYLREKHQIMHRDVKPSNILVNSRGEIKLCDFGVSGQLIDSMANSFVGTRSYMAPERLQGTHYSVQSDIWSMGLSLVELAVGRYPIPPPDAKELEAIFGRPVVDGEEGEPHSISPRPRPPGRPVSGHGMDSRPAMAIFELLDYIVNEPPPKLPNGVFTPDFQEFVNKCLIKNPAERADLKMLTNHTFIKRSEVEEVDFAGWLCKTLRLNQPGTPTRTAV
Sequence of Serine/threonine-protein kinase WNK3 (Homo sapiens) (Q9BYP7 whole entry): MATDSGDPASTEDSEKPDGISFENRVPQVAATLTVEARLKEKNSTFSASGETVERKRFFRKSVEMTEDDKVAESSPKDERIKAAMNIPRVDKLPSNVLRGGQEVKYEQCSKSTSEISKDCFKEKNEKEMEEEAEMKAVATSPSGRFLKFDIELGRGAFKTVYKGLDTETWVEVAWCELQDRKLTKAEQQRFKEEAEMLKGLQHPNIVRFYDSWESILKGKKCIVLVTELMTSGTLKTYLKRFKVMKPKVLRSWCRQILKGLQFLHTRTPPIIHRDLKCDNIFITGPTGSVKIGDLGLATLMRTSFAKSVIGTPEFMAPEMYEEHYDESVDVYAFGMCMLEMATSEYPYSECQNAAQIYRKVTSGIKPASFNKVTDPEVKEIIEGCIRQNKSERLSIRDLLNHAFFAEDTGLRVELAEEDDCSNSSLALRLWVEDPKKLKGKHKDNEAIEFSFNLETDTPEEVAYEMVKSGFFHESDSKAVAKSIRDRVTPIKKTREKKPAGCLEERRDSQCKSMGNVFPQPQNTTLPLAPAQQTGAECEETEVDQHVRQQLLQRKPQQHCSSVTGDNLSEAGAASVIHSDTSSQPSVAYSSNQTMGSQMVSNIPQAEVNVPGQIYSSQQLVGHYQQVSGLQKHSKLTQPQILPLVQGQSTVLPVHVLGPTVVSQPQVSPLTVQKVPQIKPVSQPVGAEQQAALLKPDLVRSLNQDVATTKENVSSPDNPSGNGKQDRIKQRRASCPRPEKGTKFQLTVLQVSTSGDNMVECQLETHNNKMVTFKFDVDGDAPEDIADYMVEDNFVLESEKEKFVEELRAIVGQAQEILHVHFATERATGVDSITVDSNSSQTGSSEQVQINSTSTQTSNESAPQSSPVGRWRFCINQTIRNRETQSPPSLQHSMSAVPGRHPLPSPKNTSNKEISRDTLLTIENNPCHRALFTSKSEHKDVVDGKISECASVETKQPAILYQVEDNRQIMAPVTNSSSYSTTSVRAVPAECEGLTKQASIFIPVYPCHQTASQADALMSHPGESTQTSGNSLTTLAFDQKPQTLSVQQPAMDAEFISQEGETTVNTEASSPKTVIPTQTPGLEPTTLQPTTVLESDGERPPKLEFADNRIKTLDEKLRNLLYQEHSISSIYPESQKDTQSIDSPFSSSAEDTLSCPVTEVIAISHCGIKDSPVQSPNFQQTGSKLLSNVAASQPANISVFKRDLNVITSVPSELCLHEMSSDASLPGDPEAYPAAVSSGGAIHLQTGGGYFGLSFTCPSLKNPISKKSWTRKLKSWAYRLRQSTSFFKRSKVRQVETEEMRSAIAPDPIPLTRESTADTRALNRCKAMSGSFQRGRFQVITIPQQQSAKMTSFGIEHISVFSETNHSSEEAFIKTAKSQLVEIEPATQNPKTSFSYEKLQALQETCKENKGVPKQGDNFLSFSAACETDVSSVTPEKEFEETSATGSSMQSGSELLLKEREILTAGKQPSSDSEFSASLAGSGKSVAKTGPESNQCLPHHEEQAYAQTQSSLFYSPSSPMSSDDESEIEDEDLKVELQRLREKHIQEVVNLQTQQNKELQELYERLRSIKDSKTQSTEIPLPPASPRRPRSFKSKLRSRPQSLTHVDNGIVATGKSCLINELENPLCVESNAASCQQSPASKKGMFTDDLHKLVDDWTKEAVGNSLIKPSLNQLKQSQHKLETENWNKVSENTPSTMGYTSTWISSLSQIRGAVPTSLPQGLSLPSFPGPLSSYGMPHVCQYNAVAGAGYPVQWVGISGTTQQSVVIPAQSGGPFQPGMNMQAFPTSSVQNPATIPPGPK
Sequence of Epidermal growth factor receptor (Homo sapiens) (P00533 whole entry): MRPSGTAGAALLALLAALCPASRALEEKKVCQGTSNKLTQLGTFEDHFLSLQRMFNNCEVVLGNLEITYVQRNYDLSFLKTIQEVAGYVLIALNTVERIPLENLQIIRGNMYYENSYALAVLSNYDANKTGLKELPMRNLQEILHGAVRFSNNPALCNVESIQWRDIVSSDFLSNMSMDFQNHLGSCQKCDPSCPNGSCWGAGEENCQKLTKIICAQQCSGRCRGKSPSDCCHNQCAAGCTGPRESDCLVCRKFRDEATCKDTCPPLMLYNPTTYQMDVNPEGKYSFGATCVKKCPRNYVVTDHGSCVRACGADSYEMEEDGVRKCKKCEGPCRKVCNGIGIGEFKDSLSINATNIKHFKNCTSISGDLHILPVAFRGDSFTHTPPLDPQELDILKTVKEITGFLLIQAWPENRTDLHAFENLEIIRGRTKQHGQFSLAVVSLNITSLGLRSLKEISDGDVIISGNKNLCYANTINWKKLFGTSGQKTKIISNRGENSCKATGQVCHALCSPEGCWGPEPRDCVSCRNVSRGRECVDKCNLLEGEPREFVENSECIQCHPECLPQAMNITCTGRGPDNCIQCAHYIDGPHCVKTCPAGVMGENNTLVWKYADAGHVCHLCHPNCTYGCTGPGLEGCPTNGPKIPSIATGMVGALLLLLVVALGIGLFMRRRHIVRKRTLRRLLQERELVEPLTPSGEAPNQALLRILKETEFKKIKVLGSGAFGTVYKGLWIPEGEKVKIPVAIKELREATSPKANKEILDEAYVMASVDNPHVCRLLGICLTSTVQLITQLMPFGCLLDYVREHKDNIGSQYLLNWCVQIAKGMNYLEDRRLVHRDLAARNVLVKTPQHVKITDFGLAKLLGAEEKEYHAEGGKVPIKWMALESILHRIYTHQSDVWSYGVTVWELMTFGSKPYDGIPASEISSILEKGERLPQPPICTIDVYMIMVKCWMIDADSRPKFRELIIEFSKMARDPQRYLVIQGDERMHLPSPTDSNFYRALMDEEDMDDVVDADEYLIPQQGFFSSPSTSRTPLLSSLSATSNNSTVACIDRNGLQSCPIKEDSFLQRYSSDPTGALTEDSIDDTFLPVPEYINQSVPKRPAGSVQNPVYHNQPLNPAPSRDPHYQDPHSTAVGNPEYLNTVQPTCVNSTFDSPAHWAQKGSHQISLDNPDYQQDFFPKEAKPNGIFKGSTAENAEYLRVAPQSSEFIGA
Sequence of Cyclin-dependent kinase 16 (Homo sapiens) (Q00536 whole entry, canonical isoform): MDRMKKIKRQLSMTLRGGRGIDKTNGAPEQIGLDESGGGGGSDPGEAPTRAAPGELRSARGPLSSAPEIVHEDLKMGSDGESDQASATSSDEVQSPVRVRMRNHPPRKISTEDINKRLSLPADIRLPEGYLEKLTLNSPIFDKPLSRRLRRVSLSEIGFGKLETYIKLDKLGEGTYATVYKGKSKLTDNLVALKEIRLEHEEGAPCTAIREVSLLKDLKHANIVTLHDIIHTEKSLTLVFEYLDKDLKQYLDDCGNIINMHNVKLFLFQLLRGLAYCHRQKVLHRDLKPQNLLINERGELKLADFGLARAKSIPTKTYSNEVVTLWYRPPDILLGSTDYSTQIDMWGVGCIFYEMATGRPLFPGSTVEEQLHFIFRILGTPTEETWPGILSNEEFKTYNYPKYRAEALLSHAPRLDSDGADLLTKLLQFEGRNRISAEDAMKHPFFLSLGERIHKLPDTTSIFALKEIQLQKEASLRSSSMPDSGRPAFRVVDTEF
Sequence of G protein-coupled receptor kinase 5 (Homo sapiens) (P34947 whole entry, looked up): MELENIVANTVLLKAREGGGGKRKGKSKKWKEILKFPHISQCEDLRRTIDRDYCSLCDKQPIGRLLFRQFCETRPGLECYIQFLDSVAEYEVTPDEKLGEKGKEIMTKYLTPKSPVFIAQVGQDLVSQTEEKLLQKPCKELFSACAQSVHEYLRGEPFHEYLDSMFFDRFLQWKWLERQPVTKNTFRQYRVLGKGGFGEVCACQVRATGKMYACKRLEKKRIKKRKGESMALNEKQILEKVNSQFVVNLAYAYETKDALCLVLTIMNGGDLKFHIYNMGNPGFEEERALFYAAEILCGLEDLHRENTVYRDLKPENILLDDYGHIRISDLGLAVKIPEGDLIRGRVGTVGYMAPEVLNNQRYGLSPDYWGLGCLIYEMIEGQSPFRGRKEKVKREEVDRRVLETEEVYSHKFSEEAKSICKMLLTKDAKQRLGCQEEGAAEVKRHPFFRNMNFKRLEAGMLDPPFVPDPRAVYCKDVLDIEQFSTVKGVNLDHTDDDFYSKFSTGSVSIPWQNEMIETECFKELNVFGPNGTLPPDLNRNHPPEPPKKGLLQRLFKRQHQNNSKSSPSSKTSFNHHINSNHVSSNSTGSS

O=C1c2ccc(Nc3ccc(F)cc3F)cc2CCc2ccc(OC[C@H](O)CO)cc21 [Skepinone-L]
inactive: % Residual activity with Skepinone-L [1] 95% | % Residual activity with Skepinone-L [2] 101% | % Residual activity with Skepinone-L [3] 90% | % Residual activity with Skepinone-L [4] 102% | % Residual activity with Skepinone-L [5] 93% | % Residual activity with Skepinone-L [6] 89% | % Residual activity with Skepinone-L [7] 91% | % Residual activity with Skepinone-L [8] 105% | % Residual activity with Skepinone-L [9] 82% | inhibition [10] 21.8% | % Residual activity with Skepinone-L [11] 110% | inhibition [12] 40.5% | % Residual activity with Skepinone-L [13] 83% | % Residual activity with Skepinone-L [14] 79% | % Residual activity with Skepinone-L [15] 95% | inhibition [16] 10.9% | % Residual activity with Skepinone-L [17] 100% | % Residual activity with Skepinone-L [18] 99% | % Residual activity with Skepinone-L [19] 93% | % Residual activity with Skepinone-L [20] 88% | % Residual activity with Skepinone-L [21] 93% | % Residual activity with Skepinone-L [22] 96% | inhibition [23] 9.38% | % Residual activity with Skepinone-L [24] 94% | % Residual activity with Skepinone-L [25] 99% | % Residual activity with Skepinone-L [26] 90% | % Residual activity with Skepinone-L [27] 100% | % Residual activity with Skepinone-L [28] 102% | % Residual activity with Skepinone-L [29] 88% | % Residual activity with Skepinone-L [30] 97% | % Residual activity with Skepinone-L [31] 108% | % Residual activity with Skepinone-L [32] 102% | % Residual activity with Skepinone-L [33] 111% | % Residual activity with Skepinone-L [34] 85% | % Residual activity with Skepinone-L [35] 116% | % Residual activity with Skepinone-L [36] 95% | % Residual activity with Skepinone-L [37] 90% | % Residual activity with Skepinone-L [38] 85% | % Residual activity with Skepinone-L [39] 99% | % Residual activity with Skepinone-L [40] 91% | % Residual activity with Skepinone-L [41] 119% | inhibition [42] 39.6% | % Residual activity with Skepinone-L [43] 121% | % Residual activity with Skepinone-L [44] 80% | % Residual activity with Skepinone-L [45] 83% | % Residual activity with Skepinone-L [46] 104% | % Residual activity with Skepinone-L [47] 95% | % Residual activity with Skepinone-L [48] 109% | % Residual activity with Skepinone-L [49] 86%
